Experimental findings from patent US20130224300A1, “COMPOSITIONS AND METHODS THEREOF FOR ORAL ADMINISTRATION OF DRUGS” (priority 2011, published 2013) are described below.

A short description of this data set: Sumatriptan pharmacokinetics after oral gavage in cocoa butter with or without DDM. Particulars: 25 mg in cocoa butter with 1% DDM vs no-DDM control, dog, 0-180 min. The data set is classed as in vivo, beagle dogs.

Procedure: The plot depicts serum concentrations of sumatriptan in a canine at zero through 180 min. following oral delivery (by gavage) of 25 mg sumatriptan in 1.0% DDM in a non-aqueous solution comprising cocoa butter. The solid circles represent plasma sumatriptan concentrations for doses not containing DDM (the control) and the solid squares show plasma sumatriptan concentrations for the sumatriptan doses containing DDM.
Sumatriptan, 2.5 g, was dissolved in 100 mL of cocoa butter at 45 deg. […] (in the liquid state) resulting in a solution having a sumatriptan concentration of 25 mg/mL. The solution was divided into two equal 50 mL portions. To one was added 500 mg DDM. Both solutions were kept at 45 degrees C. until the DDM is seen to have completely dissolved upon visual inspection yielding a 1% DDM solution in cocoa butter. The solutions were then cooled to about 4-10 degrees C. to allow the cocoa butter to solidify. One mL portions of the solidified cocoa butter-sumatriptan-DDM solution and one mL portions of the cocoa butter-sumatriptan (no DDM) control were formed into spherical balls and administered to beagle dogs by oral gavage. Blood samples were collected at timed intervals and plasma sumatriptan concentrations measured using a standard clinical assay.

For the compound `CNS(=O)(=O)Cc1ccc2[nH]cc(CCN(C)C)c2c1` [sumatriptan], the “increase in oral absorption based upon the relative AUC's” value is around 19%.
